From patent US4087418A, “Hexapeptides and methods for their production” (Parke, Davis & Company, priority 1976, dated 1978)

Tested on: LRF (luteinizing hormone release factor) induced luteinizing hormone (LH) release
Assay: In vitro LRF antagonist test in rat anterior pituitary cell cultures
Format: cell-based
Settings: LRF alone, Molar Conc. 2.5×10^-10 (stimulation control)
Text: Hexapeptides of this invention were screened for LRF antagonist activity in vitro using rat anterior pituitary cell cultures as described by Vale et. al. [Endocrinology, 91, 562 (1972)]. The inhibition of LRF (luteinizing hormone release factor) induced luteinizing hormone (LH) release into the culture medium is the endpoint in this in vitro bioassay.

## LRF Control: luteinizing hormone releasing factor, also referred to as luteinizing hormone releasing hormone, LH-RH; stimulates secretion of luteinizing hormone (QHWSYGLRPG; Gonadoliberin-1; UniProt P01148 24-33, looked up)
  LH Value: 38.98 ng/mL
